Activity calls are given as the source filed them.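 How the source made its calls: active means compounds giving half or more protection of infected cells from virus-caused growth loss, again on retest; inactive means the rest.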
Test system: CEM cells HIV-1 protection, formazan growth assay
Experiment: NCI AIDS Antiviral Assay
Conditions: for IC50: measured here: growth of uninfected CEM cells
Experimental: The ability of compounds to protect human CEM cells from HIV-1 infection is measured as a screen for new compounds capable of inhibiting the HIV virus. Five concentrations of drug were tested on uninfected and infected cells and cell growth was measured using a soluble formazan assay. […] Compounds that provided at least 50% protection were retested. Compounds that provided at least 50% protection on retest were listed as moderately active. Compounds that reproducibly provided 100% protection were listed as confirmed active. […] Note that the inability to provide protection could be due to toxicity.

| Structure (SMILES) | EC50 | IC50 | outcome |
| --- | --- | --- | --- |
| O=C(CC(C(=O)c1ccc(F)cc1)c1ccsc1)c1cccs1 (stereo unspecified) | > 200 µM | > 200 µM |  |
| NC(=S)N/N=C(/CC(=O)c1ccc([N+](=O)[O-])cc1)C(=O)Nc1ncc([N+](=O)[O-])s1 | > 83.2 µM | 81.3 µM |  |
| Cc1cc(=O)[nH]c(NNC(C#N)c2ccco2)n1 (stereo unspecified) | > 380 µM | > 380 µM |  |
| O=C(c1ccco1)N(C(=O)N1CCCCC1)c1ccccc1 | > 200 µM | > 200 µM |  |
| COc1ccc([C@H]2CC3C(=O)N(c4ccc(OC)cc4)C(=O)C3c3[nH]c4ccccc4c32)cc1 (stereo partly specified) | > 1.66 µM | > 1.66 µM |  |
| COC(=O)NC[C@@H]1OCc2cc3c(cc2[C@]12C=CCCC2)OCO3 | > 107 µM | 2.63 µM |  |
| O=C(NNc1nc(-c2ccccc2)cs1)C(F)(F)F | > 200 µM | 44.7 µM |  |
| CCNC(=S)N/N=C(/c1ccccc1)c1ccccn1 | > 200 µM | 1 µM |  |
| CC(=O)NNC(=S)N/C=C(\C#N)c1nc2ccccc2s1 | > 200 µM | > 200 µM |  |
| CCOC1CN(C)C(=Nc2cccc3ccccc23)S1 (stereo unspecified) | 4.9 µM | 148 µM |  |
| COc1cc(CN(C)N2C(=O)c3cccc4cc([N+](=O)[O-])cc(c34)C2=O)cc(OC)c1OC |  |  | inactive |
| COC(=O)C1(Cc2ccccc2)Cc2ccc3c(c2C1=O)CCC3 (stereo unspecified) | > 200 µM | > 200 µM |  |
| Cc1cccc2c(=O)c3c(O)cc4c(c3n(C)c12)C=CC(C)(C)O4 | > 200 µM | 14.8 µM |  |
| O=C1C(=Cc2cccc(F)c2)C(=O)c2ccccc21 | > 20.9 µM | > 20.9 µM |  |
| N#C/C(=C\c1ccccc1)c1nc(-c2cc3ccccc3oc2=O)cs1 | > 151 µM | > 151 µM |  |
| COC(=O)CCSC(=O)Nc1ccccc1Cl |  |  | inactive |
| C=CCSc1n[nH]c(=S)c2nc[nH]c12 | > 200 µM | 129 µM |  |
| CC(C)C(=O)NC(=S)Nc1ccc([N+](=O)[O-])cc1C#N | > 123 µM | > 123 µM |  |
| C=C(COC(=O)CC1(CC(=O)O)CCCC1)[C@@H]1CC[C@]2(COC(=O)CC3(CC(=O)O)CCCC3)CC[C@]3(C)[C@H](CC[C@@H]4[C@@]5(C)CC[C@H](OC(=O)CC6(CC(=O)O)CCCC6)C(C)(C)[C@@H]5CC[C@]43C)[C@@H]12 | > 200 µM | 8.71 µM |  |
| [N-]=[N+]=Nc1c(-c2ccccc2)c(=O)n(-c2ccccc2)c2ccccc12 |  |  | inactive |

| Structure (SMILES) | EC50 | IC50 | outcome |
| --- | --- | --- | --- |
| CC(C)(C)C=C=C(C(C)(C)C)P(=O)(O)O | > 200 µM | > 200 µM |  |
| O=[N+]([O-])c1nccn1CCC[n+]1ccc2ccccc2c1 | > 100 µM | 74.1 µM |  |
| CC1(C)C(=O)NC(=O)c2ccccc21 | > 200 µM | > 200 µM |  |
| CCOP(=S)(OCC)Oc1cc(C)nc(C(C)C)n1 | > 309 µM | > 309 µM |  |
| CCCCCCc1cn([C@H]2C[C@H](O)[C@@H](CO)O2)c(=O)[nH]c1=O |  |  | inactive |
| CC12CP(=O)(O)CC1C2(Cl)Cl (stereo unspecified) | > 200 µM | > 200 µM |  |
| COc1ccc(N2CCOCC2)cc1 |  |  | inactive |
| Cc1ccc2nc(N/N=C/c3ccc(C)s3)cc(C)c2c1 | > 200 µM | 14.5 µM |  |
| c1cc2c(cc1C1OCC3C(c4ccc5c(c4)OCO5)OCC13)OCO2 (stereo unspecified) | > 100 µM | 58.9 µM |  |
| CC1CC2(S(=O)(=O)c3ccccc3)ON1CC2S(=O)(=O)c1ccccc1 (stereo unspecified) |  |  | inactive |
| CCCCN(CCCC)CCCn1cnc2ncccc2c1=O |  |  | inactive |
| O=C1/C(=C/c2ccccc2)CN(C(=O)OCC(Cl)(Cl)Cl)C/C1=C\c1ccccc1 |  |  | inactive |
| CC(C)(C)c1cc(/C=C/C(=O)CC(=O)/C=C/c2cc(C(C)(C)C)c(O)c(C(C)(C)C)c2)cc(C(C)(C)C)c1O | > 200 µM | > 200 µM |  |
| COc1cc(COC(=O)NC(Cc2cccs2)C(=O)O)c([N+](=O)[O-])cc1OC (stereo unspecified) | > 603 µM | 427 µM |  |
| COc1cc(-c2coc3cc(O)ccc3c2=O)c(O)c(OC)c1OC | > 200 µM | 72.4 µM |  |
| CCc1n[nH]c(=O)n1NC(=O)c1ccccc1C(=O)O | > 200 µM | > 200 µM |  |
| O=C1OC(c2ccccc2)(c2ccccc2)c2sccc21 | > 24.5 µM | > 24.5 µM |  |
| O=C(NNC(=S)Nc1cccc(Cl)c1)c1cc(-c2ccccc2)nc2ccccc12 | > 200 µM | 12 µM |  |
| COc1ccc(-c2oc3cc(O)c(OC)c(O)c3c(=O)c2OC2OC(CO)C(O)C(O)C2O)cc1 (stereo unspecified) |  |  | inactive |
| CCCc1nc(N)nc(C(=O)Nc2cccc(C(F)(F)F)c2)c1CC | > 708 µM | > 708 µM |  |

Reference: PubChem BioAssay AID179 (DTP/NCI, 2004)
